In publication PMC3796549 (PLoS ONE, 2013):
Read-outs that look alike come from different tables or passages of the source.

Assays:
[1] = biological target: T1, PtpB from Mtb (Mycobacterium tuberculosis, UniProt P96830); test: biochemical; type: biochemical
T1 construct: made in house

[2] = biological target: T2, PtpB (Mycobacterium tuberculosis, UniProt P96830); test: biochemical; conditions: for Ki: pNPP 0.2-12.8 mM, mean ± SD; for Type of inhibition: with respect to substrate pNPP
T2 construct: made in house
T2 sequence (P96830 1-276): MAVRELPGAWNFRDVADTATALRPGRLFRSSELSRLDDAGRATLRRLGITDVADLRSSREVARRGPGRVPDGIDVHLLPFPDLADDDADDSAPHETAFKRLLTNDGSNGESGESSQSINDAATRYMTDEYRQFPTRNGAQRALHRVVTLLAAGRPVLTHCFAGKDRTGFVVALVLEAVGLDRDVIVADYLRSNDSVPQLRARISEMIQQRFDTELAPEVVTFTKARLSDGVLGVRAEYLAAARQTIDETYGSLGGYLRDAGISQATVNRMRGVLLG

[3] = biological target: T3, trypsin (Sus scrofa, UniProt P00761); test: Inhibition of trypsin by the inhibitor itself; type: biochemical
T3 construct: purchased Promega
T3 sequence (P00761 9-231): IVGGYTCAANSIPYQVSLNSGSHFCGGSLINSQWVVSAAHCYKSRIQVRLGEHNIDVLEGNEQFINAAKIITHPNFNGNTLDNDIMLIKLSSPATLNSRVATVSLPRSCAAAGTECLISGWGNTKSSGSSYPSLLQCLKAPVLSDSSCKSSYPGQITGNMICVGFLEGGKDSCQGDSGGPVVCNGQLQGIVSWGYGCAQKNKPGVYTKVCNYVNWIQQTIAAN

[4] = biological target: T2, PtpB; conditions: 300 µM inhibitor, PtpB 5 µM, 3 hours 37 °C
[5] = biological target: T4, human PTP1B (Homo sapiens, UniProt P18031); test: biochemical; conditions: for IC50: pNPP substrate, mean ± SD, 3 experiments
T4 construct: made in house
T4 sequence (P18031 1-435): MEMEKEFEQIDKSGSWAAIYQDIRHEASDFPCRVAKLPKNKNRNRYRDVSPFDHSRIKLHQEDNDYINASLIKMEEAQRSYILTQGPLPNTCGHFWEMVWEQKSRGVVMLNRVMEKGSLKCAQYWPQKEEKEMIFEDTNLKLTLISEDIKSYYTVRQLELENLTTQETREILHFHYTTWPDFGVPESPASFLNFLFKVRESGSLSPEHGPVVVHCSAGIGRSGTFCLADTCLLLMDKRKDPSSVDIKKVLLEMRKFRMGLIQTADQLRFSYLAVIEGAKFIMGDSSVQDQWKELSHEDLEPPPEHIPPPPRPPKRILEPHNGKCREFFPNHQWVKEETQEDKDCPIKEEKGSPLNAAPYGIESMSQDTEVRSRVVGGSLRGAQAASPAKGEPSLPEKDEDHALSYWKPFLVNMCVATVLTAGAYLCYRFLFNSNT

[6] = pNPP substrate, 37 °C, imidazole pH 7.0, mean ± SD, 3 experiments

T1 sequence (P96830 1-276): as the sequence (P96830 1-276) above

| Structure (SMILES) | IC50 [1, 6] [µM] | IC50 / Ki [2] | Ki [2] [µM] | Type of inhibition [2] | SI (Selectivity index) [5] | IC50 [5] [µM] | also measured |
| --- | --- | --- | --- | --- | --- | --- | --- |
| CC(C)=CCc1c(O)ccc(C(=O)[C@H]2[C@@H](c3c(O)cc(/C=C/c4ccc(O)cc4O)cc3O)C=C(C)C[C@@H]2c2ccc(O)cc2O)c1O [KuwE, Kuwanol E] | 1.9 ± 0.5 | 1.2 | 1.6 ± 0.1 | Competitive | 5.1 | 9.6 ± 2.6 | Inhibition of trypsin [3]: not able to inhibit trypsin; Protection of PtpB catalytic site from proteolytic cleavage by trypsin (fragments m/z 1953 and m/z 2224) [4]: protecting it from the proteolytic cleavage by trypsin |
| C[N+](C)(C)CCc1c[nH]c2ccc(O)cc12.[I-] [Buf-I, bufotenine CH3I] | > 100 |  |  |  |  |  | PtpB enzymatic inhibition (in words) ([1]; up to 100 µM): not active |
| COc1c(C)c(O)c2c(c1-c1c(OC)c(C)c(O)c3c1C(=O)c1cc(C)cc(O)c1C3=O)C(=O)c1cc(C)cc(O)c1C2=O [compound 6016, trachypone] | 19.2 ± 6.7 | 1.7 | 11.5 ± 1.7 | Competitive | 0.4 | 7.1 ± 1.4 |  |
| COc1ccc(CCC(=O)c2c(O)cc(OC)c(CC=C(C)C)c2OC)cc1CC=C(C)CCC=C(C)C [59-triMe, 4,2’,4’-trimethoxy-6’-hydroxy,3’-prenyl-3-geranyldihydrochalcone] | > 100 |  |  |  |  |  |  |
| O[C@@H]1OC[C@H](Cc2ccc3c(c2)OCO3)[C@H]1Cc1ccc2c(c1)OCO2 [α-Cub, α-cubebin] |  |  |  |  |  |  | PtpB enzymatic inhibition (in words) [1]: not active; IC50 ([1]; pH 7): > 100 µM |
| CC(C)=CCc1c(C)c(CC=C(C)C)c2c(c1O)C(=O)c1c(O)cc(O)c(CC=C(C)C)c1C2 [PirIII, 1,3,8-trihydroxy-6-methyl-4,5,7-triprenylanthrone] | 5.4 ± 0.6 | 0.8 | 6.6 ± 2.7 | Non-competitive |  | 11.8 ± 3.5 |  |
| CC(C)=CCC/C(C)=C/Cc1cc(CCC(=O)c2c(O)cc(O)c(CC=C(C)C)c2O)ccc1O [Ega1, 4,2’,4’,6’-tetrahydroxy-3’-prenyl-3-geranyldihydrochalcone] | 13.4 ± 2.6 | 0.9 | 14.5 ± 2.3 | Non-competitive | 1.6 | 20.9 ± 2.8 |  |
| COc1c(C2COc3cc(O)c(CC=C(C)C)c(O)c3C2=O)ccc(O)c1CC=C(C)C (centres unmarked) [M2, isosophoranone] | 19.8 ± 2.3 |  |  |  |  |  |  |
| COc1c(C2COc3cc(O)c(CCC(C)C)c(O)c3C2=O)ccc(O)c1CCC(C)C (centres unmarked) [M2H, tetra-hydro-isosophoranone] | 69.4 ± 4.5 |  |  |  |  |  |  |
| COc1c(C)c(OC(C)=O)c2c(c1-c1c(OC)c(C)c(OC(C)=O)c3c1C(=O)c1cc(C)cc(OC(C)=O)c1C3=O)C(=O)c1cc(C)cc(OC(C)=O)c1C2=O [Ac3, tetra-acetyl-trachypone] | 33.2 ± 4.9 | 1.9 | 17.1 ± 4.5 | Competitive | 0.9 | 31.2 ± 2.7 |  |
| O=C(O)/C=C/c1ccc(OC2O[C@H](CO)[C@@H](O)[C@H](O)[C@H]2O)c(O)c1 (some centres unmarked) [Caf, 4-O-glucosyl caffeic acid] | > 100 |  |  |  |  |  | PtpB enzymatic inhibition (in words) ([1]; up to 100 µM): not active |
| CC(C)=CCc1c(C)c(CC=C(C)C)c2c(c1O)C(=O)c1c(O)cc(O)c(CC=C(CO)CO)c1C2 [∆3, 1,3,8-trihydroxy-6-methyl-5,7-diprenyl-4-γ,γ’dihydroxyprenyl-anthrone] | 26.7 ± 0.6 | 2.0 | 13.4 ± 1.5 | Non-competitive | 0.6 | 14.7 ± 2.1 |  |
| COc1ccc([C@@H]2CC(=O)c3c(O)cc(O[C@@H]4O[C@H](CO[C@@H]5O[C@@H](C)[C@H](O)[C@@H](O)[C@H]5O)[C@@H](O)[C@H](O)[C@H]4O)cc3O2)cc1O [Hesp, hesperidin] | > 100 |  |  |  |  |  | PtpB enzymatic inhibition (in words) ([1]; up to 100 µM): not active |
| O=C(/C=C/c1ccc(O)c(O)c1)O[C@@H]1C[C@@](OC(=O)/C=C/c2ccc(O)c(O)c2)(C(=O)O)C[C@@H](O)[C@@H]1O [Cyn, cynarin] | > 100 |  |  |  |  |  | PtpB enzymatic inhibition (in words) ([1]; up to 100 µM): not active |
